# Reference: US20100247461A1, “ANTI-INFLAMMATORY COMPLEXES” (Signum Biosciences, Inc., priority 2009, published 2010)
# Key:
# [1] = system: TPA-treated mouse ears (edema, ear thickness); assay: TPA mouse ear model of inflammation - edema inhibition; format: in vivo; conditions: TPA-treated mouse ear, at the dose tested; AFC oil n=1, data not shown
# Procedure: In brief, mice were sedated and their ears were treated with 1.2 μg/20 uL TPA (i.e., tetradecanoylphorbol-13-acetate). After 5 minutes, we dosed these TPA-treated ears with a single 8 μg/20 μL dose, a 2 μg/20 μL dose, or both doses, of provided complexes. After 24 hours, the mice were sacrificed and edema was measured by taking micrometer readings of each ear. […] These values were corrected for the thickness of normal, non TPA-treated mouse ears of littermate controls.
# [2] = system: MPO (myeloperoxidase), neutrophil marker; assay: TPA mouse ear model of inflammation - MPO inhibition (dermal neutrophil infiltration); format: in vivo; conditions: for % MPO Inhibition in the Mouse Ear Inflammation Assay (4% concentration): topical, 24 hours
# Procedure: Briefly, we homogenized 6mm biopsy punches taken from both compound-treated ears as well as TPA-treated and non-treated control groups. We quantitated the levels of MPO by a colorimetric reaction that was measured spectrophotometrically. The percent inhibition of neutrophil infiltration by each complex was determined by comparing the average MPO levels in the presence and absence of these compounds. The calculation for percent inhibition of MPO was determined similar to that as described for calculating the percent edema inhibition, see the Edema Inhibition protocol, supra.
# [3] = system: TPA-treated mouse ears (edema, ear thickness); assay: TPA mouse ear model of inflammation - edema inhibition; format: in vivo; conditions: topical, 24 hours
# [4] = system: Propionibacterium acnes (strain ATCC 6919); assay: Inhibition of Propionibacterium acnes growth; format: cell-based; conditions: 72 hours, anaerobic, absorbance 600 nm, 1×10^6 CFU per mL
# Procedure: The assay for the inhibition of growth of Propionibacterium acnes bacteria is described elsewhere (Nakatsuji et al., J Invest Dermatol, 2009, 129: 2480-2488). In brief, the strain ATCC 6919 of P. acnes (American Type Culture Collection, Manassas, Va.) was cultured on Brucella agar (R01254, Remel, Lenexa, Kans.) supplemented with 5% (v/v) defibrinated sheep blood, vitamin K (5 mg/ml, Remel, Lenexa, Kans.), and hemin (50 mg/ml, Remel, Lenexa, Kans.), under an anaerobic condition using Gas-Pak (BD, Sparks, Md.) at 37° C. A single colony was inoculated in Reinforced Clostridium Medium (Oxford, Hampshire, England) and cultured at 37° C. under the anaerobic condition. Each of the inventive complexes—AFC-Sr, AFC-Ag and AFC-Zn as well as AFC were dissolved in 100% (v/v) DMSO. Samples of each inventive complex, AFC and a solution of benzoyl peroxide (“BPO”) were then each incubated with an inoculum of P. acnes at a concentration of 1×10^6 CFU per mL in Reinforced Clostridium Medium in a 96-well microplate (100 μL per well) under anaerobic conditions for 72 hours. Samples of each were tested at final concentrations per well of 0.25 μg/mL, 0.5 μg/mL, 1.0 μg/mL, 1.95 μg/mL, 3.9 μg/mL, 7.8 μg/mL, 15.625 μg/mL, 31.25 μg/mL, 62.5 μg/mL, 125 μg/mL, 250μg/mL, and 500 μg/mL. A control well received only 5% (v /v) of DMSO in place of a sample of an inventive complex. After 72 hours incubation under anaerobic conditions, the P. acnes cultures in the 96-well microplate were mixed well and then absorbance readings at 600 nm were taken to determine bacterial growth. […] Growth curves of P. acnes determined for BPO, AFC, AFC-Sr, AFC-Ag and AFC-Zn are depicted in FIG. 3.
# [5] = system: mouse skin reepithelialization; assay: Mouse wound healing model - skin reepithelialization; format: in vivo
# Text: The healing of wounded skin is mediated by epidermal reepithelialization that requires keratinocyte migration. Glucocorticoids are known to inhibit wound healing (Ehrlich et al., Proc Soc Exp Biol Med, 1971, 137: 936-938; Leibovich et al., Am J Pathol, 1975, 78, 71-100). […] The methods for studying mouse skin reepithelialization using both partial and full thickness mouse wound healing models have been described elsewhere (Kim et al. Wound Repair Regen, 2001, 9: 386-390). In brief, for partial thickness wounds, a 3 mm-diameter circle of epidermis is removed from the ventral auricle. The resulting wound is cleansed and dressed with an occlusive polyurethane film. The mouse ears are excised on days 3, 5, 8, and 11 post-operation and fixed in 10% buffered formalin. Following day 8 post-operation, sampling of treated mice is performed to determine completion of healing. For full thickness wounds, mice heads are shaved and depilated prior to excising the skin. The cleaned and dressed wounds are harvested and fixed at days 3, 5, 8 and 10 and fixed in 10% buffered formalin.
# [6] = system: MPO activity (neutrophil infiltration) in P. acnes-injected ear; assay: P. acnes-induced mouse ear model of inflammation - MPO endpoint; format: in vivo
# Procedure: The methods for a model of P. acnes-inflammation are described elsewhere (Nakatsuji et al., J Invest Dermatol, 2008, 128: 2451-2457).
# The protocol for inducing inflammation using P. acnes bacterial challenge on the mouse ear was slightly modified from the method described previously (Natatsuji et al., 2008). Briefly, Swiss Webster (ICR, 6-8 weeks old) mouse ears were injected with living P. acnes culture intradermally. An amount of 20 μl aliquots of living P. acnes (ATCC 6919, 3×10^6 CFU) suspended in PBS was intradermally injected in the central portion of the ear. As a control, 20 μl of PBS was injected into control animals.
# To assay for inhibition of dermal neutrophil infiltration by AFC complexes, a standard method was used (see Bradley et al., J Invest Dermatol, 1982,78: 206-209; Young et al., J Invest Dermatol, 1983, 80: 48-52; De Young et al, Agents Actions, 1989, 26: 335-41; and Rao et al., Inflammation, 1993, 17: 723-41). Briefly, 6mm biopsy punches taken from both compound-treated ears as well as non-treated control ears were homogenized in 400 μl of 0.5% hexadecyltrimethylammonium bromide in 50 mM potassium phosphate buffer (pH 6.0) using the Fast Prep 24 (MP Biomedicals, Solon, Ohio). Supernatants were assayed for MPO activity using a model EL 340 96-well plate reader (BioTek Instruments, Winooski, Vt.). The percent inhibition of neutrophil infiltration by each AFC complex was determined by comparing the average MPO levels in the presence and absence of these compounds. The percent inhibition of MPO was determined by taking the average MPO activity of compound-treated ears and dividing it by the average MPO activity of 12 ears that only received the P. acnes challenge and subtracting that value from 100%. These values were corrected for the MPO activity of normal, non P. acnes-treated mouse ears of littermate controls. Summary of MPO activity ranges determined from an MPO activity assay for dexamethasone (administered at a dose of 1.6 mg/20 μL), clobetasol (administered at a dose of 0.1 mg/20 μL), salicylic acid (administered at a dose of 0.4 mg/20 μL), AFC (administered at a dose of 0.4 mg/20 μL), AFC-Strontium complex (administered at a dose of 0.4 mg/20 μL) and SFC-disodium are presented in Table 4. “+” indicates a range of 0-20%, “++” indicates a range of 20-40%, and “+++” indicates >40% inhibition.
# [7] = system: TPA-treated mouse ears (erythema, Δa* redness); assay: TPA mouse ear model of inflammation - erythema inhibition; format: in vivo; conditions: topical, 24 hours
# Procedure: The protocol for measuring erythema inhibition by provided complexes was developed in-house by utilizing the CR-400 chroma meter from Konica Minolta (2). This instrument was used to measure the Δa*redness value from 6 mm biopsy punches taken 24 hours post TPA/compound treatment as described in the edema inhibition section above. […] These values were corrected for the Δa* value of non TPA-treated mouse ears of littermate controls.
Molecule,% MPO Inhibition in the Mouse Ear Inflammation Assay (4% concentration) ([2]; TPA-treated mouse ear),% Edema Inhibition in the Mouse Ear Inflammation Assay (4% concentration) [3],% Erythema Inhibition in the Mouse Ear Inflammation Assay (4% concentration) [7],also measured
"CC(=O)N[C@@H](CSC/C=C(\C)CC/C=C(\C)CCC=C(C)C)C(=O)O [AFC-Glucosamine complex, Glucosamine (R)-2-acetamido-3-((2E,6E)-3,7,11-trimethyldodeca-2,6,10-trienylthio)propanoate]",++ (“++” indicates a range of 40-80%),+++ (“+++” indicates >50% inhibition of edema),,"inhibition of edema [1]: 70.84±5.25%; inhibition of neutrophil infiltration ([2]; TPA-treated mouse ear, at the dose tested, AFC oil n=1, data not shown): 73.15±6.0%"
"O=C(OOC(=O)c1ccccc1)c1ccccc1 [BPO, benzoyl peroxide, reference compound]",,,,"IC50 ([4]; Cutibacterium acnes, ATCC6919, 72 h, read-out: IC50 (inhibition of P. acnes growth)): 161 µg/mL"
C[C@H]1C[C@H]2[C@@H]3CCC4=CC(=O)C=C[C@]4(C)[C@@]3(F)[C@@H](O)C[C@]2(C)[C@@]1(O)C(=O)CCl [Clobetasol],,,,effect on mouse skin reepithelialization of wounds [5]: significantly delayed; MPO % Inhibition ([6]; dose of 0.1 mg/20 μL): +++ (“+++” indicates >40% inhibition)
C[C@@H]1C[C@H]2[C@@H]3CCC4=CC(=O)C=C[C@]4(C)[C@@]3(F)[C@@H](O)C[C@]2(C)[C@@]1(O)C(=O)CO [Dexamethasone],,,,MPO % Inhibition ([6]; dose of 1.6 mg/20 μL): +++ (“+++” indicates >40% inhibition)
"CC(C)=CCC/C(C)=C/CC/C(C)=C/CSC[C@H](NC(=O)CCC(=O)O)C(=O)O [SFC, N-succinyl-S-farnesyl-L-cysteine]",+++ (“+++” indicates >80% inhibition of MPO),+++ (“+++” indicates >50% inhibition of edema),+ (“+”indicates a range of 0-20%),
CC(C)=CCC/C(C)=C/CC/C(C)=C/CSC[C@H](NC(=O)CCC(=O)[O-])C(=O)[O-].[Na+].[Na+] [SFC-disodium],++ (“++” indicates a range of 40-80%),++ (“++” indicates a range of 20-50%),++ (“++” indicates a range of 20-40%),MPO % Inhibition ([6]; dose not given): +++ (“+++” indicates >40% inhibition)
CC(C)=CCC/C(C)=C/CC/C(C)=C/CSC[C@H](NC(=O)CCC(=O)[O-])C(=O)O.[Na+] [SFC-monosodium],++ (“++” indicates a range of 40-80%),++ (“++” indicates a range of 20-50%),++ (“++” indicates a range of 20-40%),
O=C(O)c1ccccc1O [Salicylic Acid],,,,MPO % Inhibition ([6]; dose of 0.4 mg/20 μL): ++ (“++” indicates a range of 20-40%)
"[Cl-].[Cl-].[Sr+2] [Strontium chloride, reference compound]",,+ (“+”indicates a range of 0-20%),+ (“+”indicates a range of 0-20%),"biological activity compared with AFC-strontium complex (FIG. 1) ([2]; FIG. 1, follows the MPO discussion of b517, assay not named): no significant activity"
"Calcium 4-((R)-1-carboxy-2-((2E,6E)-3,7,11-trimethyldodeca-2,6,10-trienylthio)ethylamino)-4-oxobutanoate [SFC-calcium complex]",++ (“++” indicates a range of 40-80%),+++ (“+++” indicates >50% inhibition of edema),+++ (“+++” indicates >40% inhibition of erythema),
"Strontium (R)-2-amino-3-((2E,6E)-3,7,11-trimethyldodeca-2,6,10-trienylthio)propanoate [Farnesyl Cysteine-Strontium complex]",,++ (“++” indicates a range of 20-50%),++ (“++” indicates a range of 20-40%),
"Zinc (R)-2-acetamido-3-((2E,6E)-3,7,11-trimethyldodeca-2,6,10-trienylthio)propanoate [AFC-Zinc complex]",,,,IC50 (inhibition of P. acnes growth) [4]: 9.2 µg/mL
